SMILES strings stand for the structures.

The subject of the assay is CT26.CL25 cells. The assay is described as follows: Cell viability readout (CellTiter-Glo) with bacteria-free media. Format: cell-based, mouse. The settings on record: 10 nM compound, CT26.CL25 cells, 72 h, CellTiter-Glo. Here is the method:
Example 100: Cell-Based Assay of Bacterial Enzymes with Mammalian CT26.CL25 Mouse Colorectal Carcinoma Viability Readout
Bacteria-free media was incubated with the indicated test compound. ((R)—N1-(2-(methylamino)ethyl)-2-octanamidosuccinamide, a recognition element-linker conjugate lacking a payload, was serially diluted 1:1000 in DMSO and […] in medium+10% FBS to give a final concentration of 10 nM. Compound 35, Compound 76, Compound 77, Compound 78, Compound 79, and SN-38 were serially diluted 1:1000 in DMSO and 1:1000 in medium to give a final concentration of 10 nM, and then the bacteria-free supernatants were tested for their ability to kill mammalian cells. As an additional control, the test compound will also be incubated with bacteria-free media. The above steps can also be performed in the presence of E. coli (CFT073 ATCC 700928, Nissle 1917, or BL21 (DE3)) to effect cleavage of the conjugates of the application.
On Day 1, CT26.CL25 cells (15,000 cells/well) were seeded in triplicate into a 24 well plate and incubated overnight in 100 μL of complete medium. The reactions (bacteria or media blank) was pelleted by centrifugation, and then the supernatant was passed through a 0.2 μm sterile filter to remove residual bacteria.
On Day 2, 300 μL of a 10 nM solution of each compound in media were applied to separate wells of CT26.CL25 cells as prepared on Day 1. The cells were incubated at 37° C. for 72 h. After this point, viability was assessed using a CellTiter-Glo kit.
Binning of the compounds was achieved by measuring cell growth or arrest (e.g. remaining cells are >90% viable, >80% viable, >70% viable, >60% viable, >50% viable, >40% viable, >30% viable, >20% viable, or >10% viable).
A general note: In ATP-based viability assays light output follows the ATP content of the culture.

`CCCCCCCCCCCCCC(=O)N[C@H](CC(N)=O)C(=O)N[C@@H](C)CCC(=O)O[C@]1(CC)C(=O)OCc2c1cc1n(c2=O)Cc2c-1nc1ccc(O)cc1c2CC` [Example 35, (S)-4,11-diethyl-9-hydroxy-3,14-dioxo-3,4,12,14-tetrahydro-1H-pyrano[3′,4′:6,7]indolizino[1,2-b]quinolin-4-yl (S)-4-((R)-4-amino-4-oxo-2-tetradecanamidobutanamido)pentanoate]: the “Bacteria-free media (Luminescence, average of three runs)” value is 380490.

Values taken from US11998610B2, “Conjugates and methods of using the same” (Flagship Pioneering Innovations V, Inc., priority 2018, dated 2024).
